Data taken from ChEMBL document CHEMBL3046079, “Synthesis, herbicidal activity, and mode of action of IR 5790” (J Agric Food Chem, 2001).

Key:
Avena fatua = test: Post-emergence herbicidal activity against Avena fatua assessed as injury at 15 g/ha applied at 15 days post-sowing measured after 15 days relative to control; format: functional
Digitaria sanguinalis = test: Pre-emergence herbicidal activity against Digitaria sanguinalis (hairy crabgrass) assessed as injury at 150 g/ha applied at 24 hr post-sowing measured after 28 days relative to control; format: functional
Ammi majus [1] = test: Pre-emergence herbicidal activity against Amni maius assessed as injury at 150 g/ha applied at 24 hr post-sowing measured after 28 days relative to control; format: functional
Ammi majus [2] = test: Pre-emergence herbicidal activity against Amni maius assessed as injury at 50 g/ha applied at 24 hr post-sowing measured after 28 days relative to control; format: functional
Alopecurus myosuroides [3] = test: Post-emergence herbicidal activity against Alopecurus myosuroides assessed as injury at 150 g/ha applied at 15 days post-sowing measured after 15 days relative to control; format: functional
Geranium dissectum [4] = test: Post-emergence herbicidal activity against Geranium dissectum assessed as injury at 50 g/ha applied at 15 days post-sowing measured after 15 days relative to control; format: functional
Chenopodium album = test: Pre-emergence herbicidal activity against Chenopodium album assessed as injury at 50 g/ha applied at 24 hr post-sowing measured after 28 days relative to control; format: functional
Zea mays [5] = test: Phytotoxicity against Zea mays (maize) assessed as injury at 150 g/ha applied as pre-emergent treatment at 24 hr post-sowing measured after 28 days relative to control; format: organism-based; conditions: in vivo, other, 672 h
Geranium dissectum [6] = test: Post-emergence herbicidal activity against Geranium dissectum assessed as injury at 150 g/ha applied at 15 days post-sowing measured after 15 days relative to control; format: functional
Capsella bursa-pastoris [7] = test: Pre-emergence herbicidal activity against Capsella bursa-pastoris assessed as injury at 150 g/ha applied at 24 hr post-sowing measured after 28 days relative to control; format: functional
Calystegia sepium [8] = test: Post-emergence herbicidal activity against Calystegia sepium assessed as injury at 50 g/ha applied at 15 days post-sowing measured after 15 days relative to control; format: functional
Amaranthus retroflexus = test: Post-emergence herbicidal activity against Amaranthus retroflexus assessed as injury at 50 g/ha applied at 15 days post-sowing measured after 15 days relative to control; format: functional
Alopecurus myosuroides [9] = test: Post-emergence herbicidal activity against Alopecurus myosuroides assessed as injury at 15 g/ha applied at 15 days post-sowing measured after 15 days relative to control; format: functional
Panicum dichotomiflorum = test: Post-emergence herbicidal activity against Panicum dichotomiflorum assessed as injury at 150 g/ha applied at 15 days post-sowing measured after 15 days relative to control; format: functional
Persicaria maculosa = test: Post-emergence herbicidal activity against Persicaria maculosa assessed as injury at 50 g/ha applied at 15 days post-sowing measured after 15 days relative to control; format: functional
Zea mays [10] = test: Phytotoxicity against Zea mays (maize) assessed as injury at 50 g/ha applied as post-emergent treatment at 15 days post-sowing measured after 15 days relative to control; format: organism-based; conditions: in vivo, other, 360 h
Glycine max [11] = test: Phytotoxicity against Glycine max (soybean) assessed as injury at 150 g/ha applied as post-emergent treatment at 15 days post-sowing measured after 15 days relative to control; format: organism-based; conditions: in vivo, other, 360 h
Glycine max [12] = test: Phytotoxicity against Glycine max (soybean) assessed as injury at 50 g/ha applied as post-emergent treatment at 15 days post-sowing measured after 15 days relative to control; format: organism-based; conditions: in vivo, other, 360 h
Galium aparine = test: Post-emergence herbicidal activity against Galium aparine assessed as injury at 150 g/ha applied at 15 days post-sowing measured after 15 days relative to control; format: functional
Beta vulgaris [13] = test: Phytotoxicity against Beta vulgaris assessed as injury at 150 g/ha applied as pre-emergent treatment at 24 hr post-sowing measured after 28 days relative to control; format: organism-based; conditions: in vivo, other, 672 h
Papaver rhoeas = test: Post-emergence herbicidal activity against Papaver rhoeas assessed as injury at 150 g/ha applied at 15 days post-sowing measured after 15 days relative to control; format: functional
Matricaria chamomilla = test: Pre-emergence herbicidal activity against Matricaria chamomilla assessed as injury at 150 g/ha applied at 24 hr post-sowing measured after 28 days relative to control; format: functional
Ipomoea purpurea [14] = test: Pre-emergence herbicidal activity against Ipomoea purpurea (common morning-glory) assessed as injury at 150 g/ha applied at 24 hr post-sowing measured after 28 days relative to control; format: functional
Abutilon theophrasti [15] = test: Pre-emergence herbicidal activity against Abutilon theophrasti (velvetleaf) assessed as injury at 150 g/ha applied at 24 hr post-sowing measured after 28 days relative to control; format: functional
Stellaria media = test: Pre-emergence herbicidal activity against Stellaria media assessed as injury at 50 g/ha applied at 24 hr post-sowing measured after 28 days relative to control; format: functional
Brassica napus = test: Phytotoxicity against Brassica napus (oilseed rape) assessed as injury at 50 g/ha applied as pre-emergent treatment at 24 hr post-sowing measured after 28 days relative to control; format: organism-based; conditions: in vivo, other, 672 h
Zea mays [16] = test: Phytotoxicity against Zea mays (maize) assessed as injury at 150 g/ha applied as post-emergent treatment at 15 days post-sowing measured after 15 days relative to control; format: organism-based; conditions: in vivo, other, 360 h
Echinochloa crus-galli = test: Post-emergence herbicidal activity against Echinochloa crus-galli (barnyard grass) assessed as injury at 15 g/ha applied at 15 days post-sowing measured after 15 days relative to control; format: functional
Ipomoea purpurea [17] = test: Post-emergence herbicidal activity against Ipomoea purpurea (common morning-glory) assessed as injury at 15 g/ha applied at 15 days post-sowing measured after 15 days relative to control; format: functional
Sida spinosa = test: Post-emergence herbicidal activity against Sida spinosa assessed as injury at 150 g/ha applied at 15 days post-sowing measured after 15 days relative to control; format: functional
Beta vulgaris [18] = test: Phytotoxicity against Beta vulgaris assessed as injury at 50 g/ha applied as post-emergent treatment at 15 days post-sowing measured after 15 days relative to control; format: organism-based; conditions: in vivo, other, 360 h
[19] = Solubility of the compound in organis solvent; format: physicochemical
Oryza sativa [20] = test: Phytotoxicity against Oryza sativa (rice) assessed as injury at 15 g/ha applied as post-emergent treatment at 15 days post-sowing measured after 15 days relative to control; format: organism-based; conditions: in vivo, other, 360 h
Capsella bursa-pastoris [21] = test: Post-emergence herbicidal activity against Capsella bursa-pastoris assessed as injury at 50 g/ha applied at 15 days post-sowing measured after 15 days relative to control; format: functional
Portulaca oleracea = test: Pre-emergence herbicidal activity against Portulaca oleracea assessed as injury at 50 g/ha applied at 24 hr post-sowing measured after 28 days relative to control; format: functional
Abutilon theophrasti [22] = test: Post-emergence herbicidal activity against Abutilon theophrasti (velvetleaf) assessed as injury at 150 g/ha applied at 15 days post-sowing measured after 15 days relative to control; format: functional
Oryza sativa [23] = test: Phytotoxicity against Oryza sativa (rice) assessed as injury at 50 g/ha applied as post-emergent treatment at 15 days post-sowing measured after 15 days relative to control; format: organism-based; conditions: in vivo, other, 360 h
Ipomoea purpurea [24] = test: Post-emergence herbicidal activity against Ipomoea purpurea (common morning-glory) assessed as injury at 150 g/ha applied at 15 days post-sowing measured after 15 days relative to control; format: functional
Calystegia sepium [25] = test: Post-emergence herbicidal activity against Calystegia sepium assessed as injury at 5 g/ha applied at 15 days post-sowing measured after 15 days relative to control; format: functional

In the case of C#CCOc1cc(-n2nc(C(C)(C)C)sc2=O)c(Cl)cc1Cl, the Activity (Avena fatua) is reported as 0%, the Activity (Digitaria sanguinalis) is reported as 90% and the Activity (Ammi majus [1]) is reported as 0%. The Activity (Ammi majus [2]) was 0%, the Activity (Alopecurus myosuroides [3]) was 70% and the Activity (Geranium dissectum [4]) was 50%. The Activity (Chenopodium album) was 70%, the Activity (Zea mays [5]) was 0% and the Activity (Geranium dissectum [6]) was 50%. For the same compound, the Activity (Capsella bursa-pastoris [7]) was 90%, the Activity (Calystegia sepium [8]) was 70% and the Activity (Amaranthus retroflexus) was 50%. For the same compound, the Activity (Alopecurus myosuroides [9]) was 0%, the Activity (Panicum dichotomiflorum) was 90% and the Activity (Persicaria maculosa) was 90%. The Activity (Zea mays [10]) was 0%, the Activity (Glycine max [11]) was 30% and the Activity (Glycine max [12]) was 10%. It also gave an Activity (Galium aparine) of 50%, an Activity (Beta vulgaris [13]) of 10% and an Activity (Papaver rhoeas) of 30%. The Activity (Matricaria chamomilla) was 50%, the Activity (Ipomoea purpurea [14]) was 0% and the Activity (Abutilon theophrasti [15]) was 0%. It also gave an Activity (Stellaria media) of 0%, an Activity (Brassica napus) of 0% and an Activity (Zea mays [16]) of 0%. It also gave an Activity (Echinochloa crus-galli) of 0%, an Activity (Ipomoea purpurea [17]) of 90% and an Activity (Sida spinosa) of 70%. The Activity (Beta vulgaris [18]) was 50%, the solubility [19] was over 250 mg/mL and the Activity (Oryza sativa [20]) was 0%. The Activity (Capsella bursa-pastoris [21]) was 10%, the Activity (Portulaca oleracea) was 70% and the Activity (Abutilon theophrasti [22]) was 90%. For the same compound, the Activity (Oryza sativa [23]) was 0%, the Activity (Ipomoea purpurea [24]) was 90% and the Activity (Calystegia sepium [25]) was 10%.
